Measurements taken from PubChem BioAssay AID651573 (The Scripps Research Institute Molecular Screening Center, 2012).
Calls of active or inactive are those of the source.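 Rule for the calls: active = percent growth at or below 50%, meaning growth inhibited by at least half; inactive = percent growth above 50%.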

Experiments:
Test in all cases: cancer cell panel antiproliferative activity – NCI60 one-dose, 10 µM, STAT3 inhibitor project, profiling panel (AID 651573)
[1] = tested on: Non-Small Cell Lung Cancer NCI-H460; conditions: SRB absorbance, 48 h, at 10 µM, active compounds read low
Melanoma M14 = conditions: SRB absorbance, 48 h, at 10 µM, active compounds read low
Colon Cancer COLO 205 = conditions: SRB absorbance, 48 h, at 10 µM, active compounds read low, 0 = no net growth, negative = cell kill
[2] = tested on: Non-Small Cell Lung Cancer NCI-H226; conditions: SRB absorbance, 48 h, at 10 µM, active compounds read low
[3] = tested on: Ovarian Cancer NCI/ADR-RES; conditions: SRB absorbance, 48 h, at 10 µM, active compounds read low
[4] = tested on: Non-Small Cell Lung Cancer EKVX; conditions: SRB absorbance, 48 h, at 10 µM, active compounds read low
[5] = tested on: Non-Small Cell Lung Cancer A549/ATCC; conditions: SRB absorbance, 48 h, at 10 µM, active compounds read low
Ovarian Cancer SK-OV-3 = conditions: SRB absorbance, 48 h, at 10 µM, active compounds read low
Renal Cancer A498 = conditions: SRB absorbance, 48 h, at 10 µM, active compounds read low
Colon Cancer SW-620 = conditions: SRB absorbance, 48 h, at 10 µM, active compounds read low, 0 = no net growth, negative = cell kill
CNS Cancer SNB-75 = conditions: SRB absorbance, 48 h, at 10 µM, active compounds read low
Ovarian Cancer OVCAR-8 = conditions: SRB absorbance, 48 h, at 10 µM, active compounds read low
CNS Cancer SNB-19 = conditions: SRB absorbance, 48 h, at 10 µM, active compounds read low
Colon Cancer KM12 = conditions: SRB absorbance, 48 h, at 10 µM, active compounds read low
[6] = tested on: Non-Small Cell Lung Cancer NCI-H522; conditions: SRB absorbance, 48 h, at 10 µM, active compounds read low
Breast Cancer MCF7 = conditions: SRB absorbance, 48 h, at 10 µM, active compounds read low
Breast Cancer BT-549 = conditions: SRB absorbance, 48 h, at 10 µM, active compounds read low, 0 = no net growth, negative = cell kill
Prostate Cancer DU-145 = conditions: SRB absorbance, 48 h, at 10 µM, active compounds read low
Melanoma SK-MEL-5 = conditions: SRB absorbance, 48 h, at 10 µM, active compounds read low
Colon Cancer HCT-116 = conditions: SRB absorbance, 48 h, at 10 µM, active compounds read low
CNS Cancer U251 = conditions: SRB absorbance, 48 h, at 10 µM, active compounds read low
Ovarian Cancer OVCAR-3 = conditions: SRB absorbance, 48 h, at 10 µM, active compounds read low
Melanoma MDA-MB-435 = conditions: SRB absorbance, 48 h, at 10 µM, active compounds read low
CNS Cancer SF-295 = conditions: SRB absorbance, 48 h, at 10 µM, active compounds read low
Melanoma UACC-62 = conditions: SRB absorbance, 48 h, at 10 µM, active compounds read low, 0 = no net growth, negative = cell kill
Breast Cancer MDA-MB-468 = conditions: SRB absorbance, 48 h, at 10 µM, active compounds read low
CNS Cancer SF-268 = conditions: SRB absorbance, 48 h, at 10 µM, active compounds read low
Melanoma UACC-257 = conditions: SRB absorbance, 48 h, at 10 µM, active compounds read low
Leukemia K-562 = conditions: SRB absorbance, 48 h, at 10 µM, active compounds read low
Renal Cancer RXF 393 = conditions: SRB absorbance, 48 h, at 10 µM, active compounds read low
[7] = tested on: Non-Small Cell Lung Cancer HOP-92; conditions: SRB absorbance, 48 h, at 10 µM, active compounds read low, 0 = no net growth, negative = cell kill
Renal Cancer CAKI-1 = conditions: SRB absorbance, 48 h, at 10 µM, active compounds read low
Leukemia RPMI-8226 = conditions: SRB absorbance, 48 h, at 10 µM, active compounds read low
Melanoma LOX IMVI = conditions: SRB absorbance, 48 h, at 10 µM, active compounds read low
Prostate Cancer PC-3 = conditions: SRB absorbance, 48 h, at 10 µM, active compounds read low
Melanoma SK-MEL-2 = conditions: SRB absorbance, 48 h, at 10 µM, active compounds read low
[8] = tested on: Non-Small Cell Lung Cancer NCI-H23; conditions: SRB absorbance, 48 h, at 10 µM, active compounds read low
Leukemia CCRF-CEM = conditions: SRB absorbance, 48 h, at 10 µM, active compounds read low
Melanoma SK-MEL-28 = conditions: SRB absorbance, 48 h, at 10 µM, active compounds read low
Renal Cancer 786-0 = conditions: SRB absorbance, 48 h, at 10 µM, active compounds read low
[9] = tested on: Breast Cancer MDA-MB-231/ATCC; conditions: SRB absorbance, 48 h, at 10 µM, active compounds read low
Leukemia SR = conditions: SRB absorbance, 48 h, at 10 µM, active compounds read low
[10] = tested on: Non-Small Cell Lung Cancer HOP-62; conditions: SRB absorbance, 48 h, at 10 µM, active compounds read low, 0 = no net growth, negative = cell kill
Renal Cancer SN12C = conditions: SRB absorbance, 48 h, at 10 µM, active compounds read low
Colon Cancer HCT-15 = conditions: SRB absorbance, 48 h, at 10 µM, active compounds read low
Renal Cancer TK-10 = conditions: SRB absorbance, 48 h, at 10 µM, active compounds read low
Colon Cancer HCC-2998 = conditions: SRB absorbance, 48 h, at 10 µM, active compounds read low
Leukemia MOLT-4 = conditions: SRB absorbance, 48 h, at 10 µM, active compounds read low
Breast Cancer HS 578T = conditions: SRB absorbance, 48 h, at 10 µM, active compounds read low
[11] = tested on: Non-Small Cell Lung Cancer NCI-H322M; conditions: SRB absorbance, 48 h, at 10 µM, active compounds read low
Melanoma MALME-3M = conditions: SRB absorbance, 48 h, at 10 µM, active compounds read low
Ovarian Cancer OVCAR-4 = conditions: SRB absorbance, 48 h, at 10 µM, active compounds read low

COc1ccc(C(=O)C2CCN(c3ncnc4sccc34)CC2)cc1
percent growth [1]: 71% (inactive) | percent growth (Melanoma M14): 78.5% (inactive) | percent growth (Colon Cancer COLO 205): 88.2% (inactive) | percent growth [2]: 88.8% (inactive) | percent growth [3]: 43.5% | percent growth [4]: 34.9% | percent growth [5]: 74.5% (inactive) | percent growth (Ovarian Cancer SK-OV-3): 89.9% (inactive) | percent growth (Renal Cancer A498): 91.7% (inactive) | percent growth (Colon Cancer SW-620): 90.8% (inactive) | percent growth (CNS Cancer SNB-75): 104% (inactive) | percent growth (Ovarian Cancer OVCAR-8): 64% (inactive) | percent growth (CNS Cancer SNB-19): 64.8% (inactive) | percent growth (Colon Cancer KM12): 87.9% (inactive) | percent growth [6]: 49.2% | percent growth (Breast Cancer MCF7): 55.4% (inactive) | percent growth (Breast Cancer BT-549): 53.4% (inactive) | percent growth (Prostate Cancer DU-145): 98.8% (inactive) | percent growth (Melanoma SK-MEL-5): 26.5% | percent growth (Colon Cancer HCT-116): 34.4% | percent growth (CNS Cancer U251): 77.5% (inactive) | percent growth (Ovarian Cancer OVCAR-3): 97.1% (inactive) | percent growth (Melanoma MDA-MB-435): 66.6% (inactive) | percent growth (CNS Cancer SF-295): 57.1% (inactive) | percent growth (Melanoma UACC-62): 52.7% (inactive) | percent growth (Breast Cancer MDA-MB-468): 18.9% | percent growth (CNS Cancer SF-268): 85.4% (inactive) | percent growth (Melanoma UACC-257): 63.7% (inactive) | percent growth (Leukemia K-562): 41.4% | percent growth (Renal Cancer RXF 393): 102% (inactive) | percent growth [7]: 61.7% (inactive) | percent growth (Renal Cancer CAKI-1): 66.4% (inactive) | percent growth (Leukemia RPMI-8226): 27.7% | percent growth (Melanoma LOX IMVI): 40.1% | percent growth (Prostate Cancer PC-3): 76.9% (inactive) | percent growth (Melanoma SK-MEL-2): 76% (inactive) | percent growth [8]: 53.4% (inactive) | percent growth (Leukemia CCRF-CEM): 42.3% | percent growth (Melanoma SK-MEL-28): 105% (inactive) | percent growth (Renal Cancer 786-0): 72.4% (inactive) | percent growth [9]: 77.8% (inactive) | percent growth (Leukemia SR): 47.9% | percent growth [10]: 91.9% (inactive) | percent growth (Renal Cancer SN12C): 71.2% (inactive) | percent growth (Colon Cancer HCT-15): 72.4% (inactive) | percent growth (Renal Cancer TK-10): 73.3% (inactive) | percent growth (Colon Cancer HCC-2998): 82.3% (inactive) | percent growth (Leukemia MOLT-4): 57.7% (inactive) | percent growth (Breast Cancer HS 578T): 93.6% (inactive)

COc1ccc(CC2CCN(c3ncnc4sccc34)CC2)cc1
percent growth [1]: 62.4% (inactive) | percent growth (Melanoma M14): 87.5% (inactive) | percent growth (Colon Cancer COLO 205): 95% (inactive) | percent growth [2]: 82% (inactive) | percent growth [3]: 43.4% | percent growth [4]: 39.9% | percent growth [5]: 64.2% (inactive) | percent growth (Ovarian Cancer SK-OV-3): 87.5% (inactive) | percent growth (Renal Cancer A498): 96.1% (inactive) | percent growth (Colon Cancer SW-620): 86.9% (inactive) | percent growth (CNS Cancer SNB-75): 100% (inactive) | percent growth (Ovarian Cancer OVCAR-8): 65.4% (inactive) | percent growth (CNS Cancer SNB-19): 69.3% (inactive) | percent growth (Colon Cancer KM12): 91.7% (inactive) | percent growth [6]: 48.5% | percent growth (Breast Cancer MCF7): 55.5% (inactive) | percent growth (Breast Cancer BT-549): 56% (inactive) | percent growth (Prostate Cancer DU-145): 99.4% (inactive) | percent growth (Melanoma SK-MEL-5): 31.8% | percent growth (Colon Cancer HCT-116): 34.9% | percent growth (CNS Cancer U251): 73.2% (inactive) | percent growth (Ovarian Cancer OVCAR-3): 94.1% (inactive) | percent growth (Melanoma MDA-MB-435): 66.9% (inactive) | percent growth (CNS Cancer SF-295): 59% (inactive) | percent growth (Melanoma UACC-62): 54.8% (inactive) | percent growth (Breast Cancer MDA-MB-468): 21.3% | percent growth (CNS Cancer SF-268): 93.2% (inactive) | percent growth [11]: 66.6% (inactive) | percent growth (Melanoma MALME-3M): 127% (inactive) | percent growth (Melanoma UACC-257): 67.2% (inactive) | percent growth (Ovarian Cancer OVCAR-4): 50.7% (inactive) | percent growth (Leukemia K-562): 41.1% | percent growth (Renal Cancer RXF 393): 108% (inactive) | percent growth [7]: 75.4% (inactive) | percent growth (Renal Cancer CAKI-1): 66.3% (inactive) | percent growth (Leukemia RPMI-8226): 25.4% | percent growth (Melanoma LOX IMVI): 34.4% | percent growth (Prostate Cancer PC-3): 81.5% (inactive) | percent growth (Melanoma SK-MEL-2): 71.3% (inactive) | percent growth [8]: 46.8% | percent growth (Leukemia CCRF-CEM): 51% (inactive) | percent growth (Melanoma SK-MEL-28): 108% (inactive) | percent growth (Renal Cancer 786-0): 65.6% (inactive) | percent growth [9]: 79.8% (inactive) | percent growth (Leukemia SR): 72.5% (inactive) | percent growth [10]: 93.6% (inactive) | percent growth (Renal Cancer SN12C): 72.9% (inactive) | percent growth (Colon Cancer HCT-15): 73.7% (inactive) | percent growth (Renal Cancer TK-10): 80.4% (inactive) | percent growth (Colon Cancer HCC-2998): 88.5% (inactive) | percent growth (Leukemia MOLT-4): 66% (inactive) | percent growth (Breast Cancer HS 578T): 90.1% (inactive)
